A melting point compilation (Tetko et al.; mined from patent text by program, amines drawn as free bases though some values may be those of a salt)

melting point [°C]	SMILES
185 to 188	COc1ccccc1N1CCc2c1c1cccc(OC)c1[nH]c2=O
149 to 151	Nc1cc(Cl)nc(C(=O)O)c1C(F)F
250	N#Cc1cc(N=Nc2cc(Cl)ccc2Cl)ccc1N
208 to 216	NS(=O)(=O)c1ccc(N2CN(c3cccc(Cl)c3)CC2=O)c(Cl)c1
263	CC(C)(C)c1cc(Cn2nc(C=Cc3nn(Cc4cc(C(C)(C)C)c(O)c(C(C)(C)C)c4)c(=O)o3)oc2=O)cc(C(C)(C)C)c1O
293 to 294	CCOCCn1cc2c(C3C(=O)Nc4ccc(Cl)cc43)nc(NCCN3CCOCC3)nc2n1 (stereo not drawn)
190 to 191	CN(C)C(=O)CC1CN=C(c2cc3cc(Oc4ccc(S(C)(=O)=O)nc4)ccc3[nH]2)S1 (stereo not drawn)
166 to 168	Cc1cccc2[nH]c(S(=O)Cc3cccn4ccnc34)nc12 (stereo not drawn)
188	O=C1C=C(O)CC(c2ccc3c(c2)OCCO3)C1 (stereo not drawn)
260	O=C(O)C(=O)c1ccc(OCCOc2ccc3ccncc3c2)cc1
110 to 111	CN(CCCNC(=O)c1ccc(OC(F)(F)F)cc1)CCCNC(=O)c1ccc(OC(F)(F)F)cc1
197 to 198	COc1ccc2oc(Cn3cnc4c(N)ncnc43)c(-c3ccccc3)c(=O)c2c1
233 to 235	O=C1CCC(N2Cc3c(OCc4ccc(CN5CCN(C(=O)C6CC6)CC5)cc4)cccc3C2=O)C(=O)N1 (stereo not drawn)
> 250	CC(C)n1nc(-c2cc(C(N)=O)c(N)nc2-c2ccccc2)ccc1=O
152	O=C(O)CCC(=O)c1ccc(CCNS(=O)(=O)c2ccc(Cl)cc2)cc1
218 to 220	Fc1nc(NCc2cccnc2)c2nc[nH]c2n1
185 to 187	COc1ccc(-c2cncn2-c2ccc(S(C)(=O)=O)cc2)cc1
169 to 170	CCOC(=O)c1c(Cl)nn(C)c1S(=O)(=O)NC(=O)Nc1nc(OC)cc(OC)n1
222 to 228	COc1ccc(-c2ccc3c(c2)C=C(C(=O)Nc2ccc(CN(C)C4CCC5(CC4)OCCO5)cc2)CCS3(=O)=O)cc1
> 300	O=C(C=Cc1ccc(-c2ccc(O)cc2)cc1)NO
46	CCOC(=O)C(=O)c1ccc(SCC2CC2)[nH]1
239 to 241	CCCCc1nc2c(N)nc3ccccc3c2n1CCCNS(C)(=O)=O
300	Nc1nc(O)nc(Cl)n1
120 to 122	CCNC(=S)Nc1cc(Cl)ccc1C

melting point [°C]	SMILES
192	O=C(O)C[C@H](NC(=O)CNC(=O)c1csc(NC(=O)NCc2ccccc2)n1)C(=O)Nc1ccccc1C(=O)O
95 to 96	CC(=O)Oc1ccc2c3c(ccc2c1)C1CC=CC1(C)CC3 (stereo not drawn)
157 to 159	N#CCOc1ccc(-c2cc(O)c(SCCc3ccccc3)c(=O)o2)cc1
125 to 127	O=S(=O)(On1nnc2ccc(Cl)cc21)c1ccc(Cl)cc1
117 to 119	Nc1nc(CCCO)nc2c1ncn2C1OC(CO)C(O)C1S (stereo not drawn)
160	O=C(O)CCCc1cc2nc(Cl)ccc2n1S(=O)(=O)c1ccc2c(c1)OCO2
130 to 132	O=C(C=Cc1ccc(Cl)cc1Cl)c1ccccc1[N+](=O)[O-]
158 to 159	COc1cc2ncc(N3C(=O)C4CCC3CC4)nc2cc1OC
118 to 125	O=C1NC(=O)C(c2cn(CCCO)c3ccc(F)cc23)=C1c1cccc(NCC(O)CO)c1 (stereo not drawn)
250	Cc1nc(N)nc(N)c1-c1c(Cl)cccc1Cl
119 to 120	CC(C)[C@H](OCc1ccccc1)[C@H]1[C@H]([N+](=O)[O-])[C@H](C(C)(C)C)N[C@@H]1C(=O)NCC(=O)O
84	CCCCC(=O)NC(C(=O)OCC)=C(N)SCCOC(C)=O
108 to 109	CC1(C)COC(=O)OC1
207 to 209	Cn1cc(OS(C)(=O)=O)c(=O)c2cccc(F)c21
194 to 195	CCC1(CCC(=O)OC(C)(C)C)CCCN2CCc3c([nH]c4ccccc34)C21 (stereo not drawn)
86 to 88	C=CCC(=O)NCC(CO)c1cccc2ccc(OC)cc12 (stereo not drawn)
194 to 195	COc1nc(Cl)nc2c1c(C#N)cn2C1OC(CO)C(O)C1O (stereo not drawn)
95 to 97	CCC(Oc1ccccc1C#N)C(=O)OC1CC(O)C=C2C=CC(C)C(CCC3CC(O)CC(=O)O3)C21 (mixture of isomers)
197 to 199	C#CCN(Cc1ccc2nc[nH]c(=O)c2c1)c1ccc(C(C)=O)cc1
190 to 194	COC(=O)[C@H](Cc1ccc(NC(=O)c2c(Cl)cccc2Cl)cc1)NC(=O)C1(CCNC(C)=O)CCCC1
168 to 170	Nc1nc2ccccc2c2c1nc(COc1ccccc1)n2CCOc1ccccc1
178 to 179	CN(C)c1cccc(CSC2NC(=S)NC2(C)C)c1 (stereo not drawn)
217 to 219	O=C(NCc1ccc(Cl)cc1)c1cnc2sc(C(=O)N3CCOCC3)cc2c1O
205 to 208	CCN(CC)c1cc(C)nc(-c2ccncc2)n1

melting point [°C]	SMILES
62 to 64	CCCCCCCCCCCCCCC1CC1C(=O)O (stereo not drawn)
70 to 73	CCCCCS(=O)(=O)NC(=O)OCc1ccc(OC(C)C)cc1Oc1ncc(C(F)(F)F)cc1Cl
121 to 123	CNC(=S)n1nc(Oc2c(Cl)cc(C(F)(F)F)cc2Cl)cc1C
124 to 126	CCOC(=O)C1=C(C)N(c2ccc(Cl)cc2)C(=O)CC1
190 to 193	CN(C)N1C(=O)C(Cc2ccncc2)(Cc2ccncc2)c2ccccc21
> 300	Cc1c2ccccc2cc2[nH]c(S)nc12
> 250	CC1COCc2nc3c(N)nc4cc(C=CC(=O)N5CCOCC5)ccc4c3n21 (stereo not drawn)
138 to 139	O=C(c1ccccc1)c1ccc(-c2nc(CCl)co2)cc1
251 to 253	COc1cc(Cl)ccc1NC(=O)C1CCCn2c1nc(-c1ccncn1)cc2=O (stereo not drawn)
127 to 128	COCc1ccc(C)c(NC(=O)CC23CC4CC(CC(C4)C2)C3)c1
111 to 113	Cc1nn2ccccc2c1SC#N
128 to 133	CN(C)C=C(C(=O)c1ccccc1)c1ccccc1
165	CCc1cn([C@H]2C[C@H](OC(C)=O)[C@@H](/C=C/C(=O)Cc3c(Cl)cccc3Cl)O2)c(=O)[nH]c1=O
209	CC1CC(n2cncc2C(=O)O)c2ccccc21 (stereo not drawn)
146 to 150	C#Cc1cccc(Nc2ncnc3ccc(S(=O)(=O)n4ccc(C=CC(=O)Nc5ccccc5NC(=O)OC(C)(C)C)c4)cc23)c1
282 to 287	O=S1(=O)c2ccccc2N(c2ccccc2O)c2ccccc21
166 to 168	CCCCOC(=O)c1ccc(C(=O)NNC(=O)c2ccc(C(=O)OCCCC)cc2)cc1
143 to 144	COc1ccc2c(c1)OC(C)(C)C(NC(=O)c1cc(F)ccc1OC)C2=O (stereo not drawn)
194 to 195	Cc1nc(CO)sc1-c1ccnc(Nc2ccc(N3CCCCC3)cc2)n1
126 to 127	N#Cc1cc(N2CCCCC2)ccc1[N+](=O)[O-]
157 to 158	CC(C)(C)c1ccc(C(O)CCCCN2CCC(=C3c4ccccc4CCc4ccccc43)CC2)cc1 (stereo not drawn)
149 to 150	CN1C(C(=O)Nc2ccccn2)=C(OCOC(=O)c2ccccc2)c2ccccc2S1(=O)=O
199 to 202	CN1CCN(Cc2ccc(-c3cccc(-c4ccnc5c(C(=O)c6cccs6)cnn45)c3)cc2)CC1
165 to 168	COC(=O)N1CSC(=Cc2cc(C(C)(C)C)c(O)c(C(C)(C)C)c2)C1=O

melting point [°C]	SMILES
119 to 121	C#CCC(Cc1cccnc1)(C(=O)O)S(=O)(=O)c1ccc(OC)cc1 (stereo not drawn)
93 to 95	O=C(c1ccc(Cl)cc1)c1noc(CS(=O)c2ccccc2)n1 (stereo not drawn)
242 to 244	CCNc1cc2ncnc(N3CCN(C(=O)Nc4ccc(Oc5ccccc5)cc4)CC3)c2cc1[N+](=O)[O-]
203 to 204	CN1C(=O)C(C(=O)NCC2CCC(C(=O)O)CC2)S(=O)(=O)c2ccccc21 (stereo not drawn)
155 to 156	CCCc1nc2c(N)nc3cccnc3c2n1CCCCN(OC)C(C)=O
126 to 127	CC(C)(C)CC(C)(C)Nc1nc(NC(C)(C)CC(C)(C)C)nc(N2CC3CCC(CC3)C2)n1
95 to 98	COc1cc(CC#N)nc(N)n1
38 to 39	Cc1ccc(I)c(C(O)(C(F)(F)F)C(F)(F)F)c1
152 to 153	CCCN(C)S(=O)(=O)c1nnc(NC(=O)N(C)C)s1
284 to 285	CC1=C(Nc2ccc(C3=NNC(=O)CC3)cc2)CCC1=O
134 to 136	COc1cc2c(cc1OC)C(Cc1ccc([N+](=O)[O-])cc1)NCC2 (stereo not drawn)
90 to 91	CCCc1nc(C(C)(C)O)c(C(=O)OCC)n1Cc1ccc(-c2ccccc2C(=O)OC(C)(C)C)cc1
66 to 67	N#CC1=CCC(c2ccccc2)c2ccccc21 (stereo not drawn)
288 to 290	COc1ccc(-c2c3c(cc4ccc(OC)c(OC)c24)C(=O)NC3=O)cc1
97 to 98	N#CC(=NOCF)C(=N)NCl
150 to 151	CCC(N)(CO)CS(=O)(=O)c1ccccc1C(=O)c1ccccc1 (stereo not drawn)
172 to 173	COC(=O)C=Cc1ccc2[nH]c(C)cc2c1
112 to 115	CCCCOCCOc1ccc(-c2ccc3c(c2)C=C(C(=O)Nc2ccc(SCc4ncon4)cc2)CCN3CC(C)C)cc1
126 to 127	CCCCNC(=O)NC(=O)C(C)Oc1ccc(Oc2ncc(C(F)(F)F)cc2Cl)cc1 (stereo not drawn)
98.1 to 99.9	CCCCCCC(C)Oc1ccc(C(=O)O)cc1C#N (stereo not drawn)
245 to 250	O=c1cc(Sc2ccccc2)c(-c2nc[nH]n2)nn1-c1ccccc1
118 to 120	CCCCNC(=O)Cc1ccc(O)c(C2CCCCC2)c1

SMILES	melting point [°C]
COc1ccc2[nH]cc(C3=CCN(C[C@H](O)COc4cccc5[nH]ccc45)CC3)c2c1	105 to 110
O=Cc1cccc(NC(=O)NC2N=C(c3ccccc3F)c3ccccc3N(CC(=O)N3CC4CCC(CC4)C3)C2=O)c1 (racemic)	164 to 182
C=CCC(CC1CC2CCN1CC2)(c1ccccc1)c1ccccc1 (stereo not drawn)	95.5 to 98
C[C@@H]1C(=O)N(c2ccc(C#N)c(Cl)c2)[C@@H](C)[C@H]1O	149 to 151
